Data from article PMC10258794, “To Fold or Not to Fold: Diastereomeric Optimization of an α-Helical Antimicrobial Peptide” (Journal of Medicinal Chemistry, 2023).
In brackets after ≈: the same amount, converted by molar mass. Where two headings read alike, the source gives them in different places. Non-standard residues stand in square brackets, D forms with d. Residues, ends and D or L forms follow the SMILES beside them.

Key:
human red blood cells = test: Hemolysis assay (MHC)
Experimental: To determine the MHC stock solutions, 8 mg/mL peptide in PBS (pH 7.4) was prepared, and 50 μL was diluted serially by l/2 in 50 μL of PBS (pH 7.4) in a 96-well plate (Costar or Nunc, polystyrene, untreated). […] Plasma was discarded, and the pellet was re-suspended in a 15 mL Falcon tube in 5 mL of PBS. The washing was repeated three times, and the remaining pellet was re-suspended in 10 mL of PBS. The hRBC suspension (50 μL) was added to each well, and the plate was incubated at room temperature for 4 h. MHC end points were determined by visual determination of the wells after the incubation period. Controls on each plate included a blank medium control (50 μL PBS + 50 μL of hRBCs suspension) and a hemolytic activity control (mQ-deionized water 50 μL + 50 μL hRBC suspension).

[1] = EYPG vesicle leakage assay; assay type: biochemical; conditions: 10 μg/mL of compound; 10 mM TRIS, 107 mM NaCl, pH 7.4
Experimental: (§1) 5(6)-carboxyfluorescein (CF) was purchased from Sigma. EYPC, EYPG, and a Mini-Extruder were purchased from Avanti Polar Lipids. Egg PC or Egg PG thin lipid layers were prepared by evaporating a solution of 100 mg of EYPC or EYPG in 4 mL of MeOH/CHCl3 (1:1) on a rotary evaporator at room temperature and then dried in vacuo overnight. […] Extravesicular components were removed by gel filtration (Sephadex G-50) with 10 mM TRIS, 107 mM NaCl, pH 7.4 buffer. Final conditions: ∼2.5 mM PC or PG; inside: 50 mM CF, 10 mM TRIS, 10 mM NaCl, pH 7.4 buffer; outside: 10 mM TRIS, 107 mM NaCl, pH 7.4. […] The CF efflux was monitored at λem 517 nm (λex 492 nm) as a function of time after addition of the desired volume of peptide from 2 mg/mL stock in mQ water at t = 45 s, 10 and 50 μg/mL were monitored for both EYPC and EYPG. […] Fluorescence intensities were then normalized to the maximal emission intensity using I(t) = (It – I0)/(I∞ – I0) where I0 = It at peptide addition, I∞ = It at saturation of lysis.

[2] = EYPC vesicle leakage assay; assay type: biochemical; conditions: 10 μg/mL of compound; 10 mM TRIS, 107 mM NaCl, pH 7.4
Experimental: as §1

[3] = CD spectroscopy, α-helix content; assay type: physicochemical; conditions: 5 mM DPC in 7 mM PB buffer pH 7.4, Dichroweb Contin LL set 4
Experimental: CD experiments were measured on a Jasco J-715 spectropolarimeter. All the experiments were performed using Hellma Suprasil 110-QS 0.1 cm cuvettes. For each peptide, the measurements were performed in phosphate buffer (PB, pH = 7.4, 7 mM), 10% TFE, 20% TFE, 5 mM DPC. The buffer was degassed for 10 min under high vacuum before each set of experiments. The concentration of the peptides was 0.100 mg/mL, and each sample was measured in one accumulation. The scan rate was 20 nm/min, pitch was 0.5 nm, response was 16 s, and bandwidth was 1.0 nm. The nitrogen flow was kept >8 L/min. After each measurement, the cuvettes were washed successively with milli-Q H2O and PB (pH 7.4). The baseline was recorded under the same conditions and subtracted manually. Primary CD spectra were analyzed using DichroWeb[58] and Contin-LL method (set 4).[74]

A. baumannii ATCC19606 = system: A. baumannii ATCC19606
Procedure, shortened: (§2)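 MTT read-out: lowest concentration with no visible growth (yellow wells, unaided eye) taken as MIC. Inoculum ~5 × 10^5 CFU in MH pH 7.4 from OD600 0.022 dilution; 2-fold compound series; 16–20 h, 37 °C, no shaking.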

E. coli W3110 = system: E. coli W3110
Procedure, shortened: as §2

K. pneumoniae NCTC418 = system: K. pneumoniae NCTC418
Procedure, shortened: as §2

P. aeruginosa PAO1 = system: P. aeruginosa PAO1
Procedure, shortened: as §2

[4] = system: Pseudomonas aeruginosa, Klebsiella pneumoniae, Acinetobacter baumannii, Escherichia coli, and methicillin-resistant Staphylococcus aureus; conditions: summary of Table 1
Procedure, shortened: as §2

S. aureus COL MRSA = conditions: for MIC S. aureus COL MRSA: MH broth pH 7.4, 16–20 h, 37 °C
Procedure, shortened: as §2

Burkolderia cenocepacia = test: microbe, parasite or virus in culture; conditions: MDR strain; MH broth pH 7.4, 16–20 h, 37 °C
Enterobacter cloacae = test: microbe, parasite or virus in culture; conditions: pH 7.4
Procedure, shortened: as §2

P. aeruginosa PA14 = test: microbe, parasite or virus in culture
Procedure, shortened: as §2

P. aeruginosa ZEM-1A = test: microbe, parasite or virus in culture; conditions: pH 7.4
Procedure, shortened: as §2

PA14 2P4 (pmrB) = test: microbe, parasite or virus in culture; conditions: supplementary CSV
Procedure, shortened: as §2

PA14 4.13 (phoQ) = test: microbe, parasite or virus in culture; conditions: supplementary CSV
Procedure, shortened: as §2

PA14 4.18 (pmrB) = test: microbe, parasite or virus in culture; conditions: supplementary CSV
Procedure, shortened: as §2

P. aeruginosa ZEM9A = test: microbe, parasite or virus in culture; assay type: cell-based, Pseudomonas aeruginosa; conditions: pH 7.4
Experimental: (§3) Antimicrobial activity was determined for all peptides on E. coli W3110, P. aeruginosa PAO1, A. baumannii ATCC19606, K. pneumoniae NCTC418, and methicillin-resistant S. aureus COL and for selected peptides on P. aeruginosa PA14 and the polymyxin B-resistant derivatives PA14 4.13, PA14 4.18, and PA14 2P4 as well as the clinical isolates ZEM-1A and ZEM9A, K. pneumoniae OXA-48, Enterobacter cloacae, Stenotrophomonas maltophilia, B. cenocepacia, and Staphylococus epidermis. To determine the MIC, the broth microdilution method was used.[75] A single bacterial colony was grown in LB medium overnight at 37 °C and 180 rpm shaking. The compounds were prepared as stock solutions of 2 mg/mL in sterilized milliQ deionized water, added to the first well of 96-well sterile, polypropylene round-bottom microtiter plates (TPP, untreated, Corning Incorporated, Kennebunk, USA), and diluted serially by 1/2. […] The bacterial inoculum was prepared by measuring the absorbance of the overnight culture, which was diluted to concentration of the bacteria was quantified by measuring absorbance at 600 nm and diluted to an OD600 of 0.022 in MH medium pH 7.4 (Sigma-Aldrich, Buchs, Switzerland). The sample solutions (150 μL) were mixed with 4 μL of diluted bacterial suspension with a final inoculation of about 5 × 10^5 CFU. For each test, two columns of the plate were kept for sterility control (MH medium only) and growth control (MH medium with bacterial inoculum, no compound). […] The plates were incubated at 37 °C for 16–20 h under static conditions. 15 μL of 3-(4,5-dimethylthiazol-2-yl)-2,5-diphenyltetrazolium bromide (MTT)[76] (1 mg/mL in sterilized milliQ deionized water) was added to each well, and the plates were incubated at room temperature until MTT staining was completed. The MIC was defined as the lowest concentration of the dendrimer that inhibits the visible growth of the tested bacteria (yellow) with the unaided eye.

K. pneumoniae Oxa-48 = test: MIC broth microdilution, K. pneumoniae Oxa-48; assay type: cell-based, Klebsiella pneumoniae; conditions: MDR strain; MH broth pH 7.4, 16–20 h, 37 °C
Experimental: as §3

[5] = system: Stenotrophomonas maltophilia; test: microbe, parasite or virus in culture; assay type: cell-based; conditions: pH 7.4
Experimental: as §3

Staphylococcus epidermis = test: MIC broth microdilution, Staphylococcus epidermis; assay type: cell-based; conditions: pH 7.4
Experimental: as §3

HEK293 cells = test: Alamar blue cytotoxicity, HEK293; assay type: cell-based, human; conditions: 24 h, mean ± SD, n = 3, read-out: Toxicity on HEK293 cells
Experimental: The A549 human lung adenocarcinoma cells are derived from a patient and were kindly given to us by Dr. Georgia Konstatinidou (Pharmacology Institute, Bern University). HEK293T cells were obtained from ATCC (CRL-11268). A549 and HEK293 were cultured in an incubator at 37 °C with 5% CO2 in RPMI-1640 (Gibco) and DMEM (Gibco) containing 10% fetal bovine serum (Thermo Fisher), 100 I.U./mL penicillin, and 100 μg/mL streptomycin (Gibco).
The viability of the cells was assessed with an AlamarBlue assay (ThermoFisher). Cells were seeded into 96-well plates, 4000 cells/well (HEK293) and 8000 cells/well (A549), the day before the experiment. Cells were then treated with the increasing concentration of the compound and incubated for 24 h at 37 °C in the presence of 5% CO2. The next day, the medium was removed and replaced by a 10% AlamarBlue solution in full growth medium (DMEM or RPMI-1640). The cells were incubated for 3–5 h at 37 °C with 5% CO2 in a humidified atmosphere. The fluorescence was then measured on a Tecan Infinite M1000 Pro plate reader at λex 560 nm and λem 590 nm. The value was normalized according to the untreated cells.

[6] = MH broth pH 7.4, 16–20 h, 37 °C
[7] = supplementary CSV, ranges of Table 1 given as one number

Compound	MHC (human red blood cells) [µg/mL]	MHC (human red blood cells; pH 7.4) [µg/mL]	EYPG vesicle leakage (%) [1] [%]	EYPC vesicle leakage (%) [2] [%]	α-helix content (%) [3] [%]	MIC A. baumannii ATCC19606 (A. baumannii ATCC19606; [6]) [µg/mL]	MIC E. coli W3110 (E. coli W3110; [6]) [µg/mL]	MIC K. pneumoniae NCTC418 (K. pneumoniae NCTC418; [6]) [µg/mL]	MIC K. pneumoniae NCTC418 (K. pneumoniae NCTC418; NCTC418) [µg/mL]	MIC P. aeruginosa PAO1 (P. aeruginosa PAO1; [6]) [µg/mL]	MIC, span over the five bacterial strains [4]	MIC S. aureus COL MRSA (S. aureus COL MRSA) [µg/mL]	MIC K. pneumoniae NCTC418 (K. pneumoniae NCTC418; [7]) [µg/mL]	MIC P. aeruginosa PAO1 (P. aeruginosa PAO1; [7]) [µg/mL]	MIC S. aureus COL (S. aureus COL MRSA; [7]) [µg/mL]	other results
H-KKLLKLLKLLLKKLLKLLKLLL-NH2 [2ln65]	< 15.6	<15.6	73	40	91	>64	>64	>64	>64	>64	entirely inactive	>64				
CC[C@H](C)[C@H](NC(=O)[C@@H](NC(=O)[C@@H](NC(=O)[C@@H](CCCCN)NC(=O)[C@@H](NC(=O)[C@@H](NC(=O)[C@@H](CCCCN)NC(=O)[C@@H](NC(=O)[C@@H](NC(=O)[C@@H](CCCCN)NC(=O)[C@H](N)CCCCN)[C@@H](C)CC)[C@@H](C)CC)[C@@H](C)CC)[C@@H](C)CC)[C@@H](C)CC)[C@@H](C)CC)C(N)=O [HP35, kkIIkIIkIII] (H-[dK][dK]II[dK]II[dK]III-NH2)	125	125	98	13	22	8 (≈ 6.05 µM)	4 (≈ 3.03 µM)	>64		16 (≈ 12.1 µM)		>64				MIC S. aureus COL (S. aureus COL MRSA; COL): >64 µg/mL
CC(C)C[C@H](NC(=O)[C@H](CC(C)C)NC(=O)[C@H](CC(C)C)NC(=O)[C@H](CCCCN)NC(=O)[C@@H](CC(C)C)NC(=O)[C@H](CC(C)C)NC(=O)[C@H](CCCCN)NC(=O)[C@@H](CC(C)C)NC(=O)[C@@H](CC(C)C)NC(=O)[C@@H](CCCCN)NC(=O)[C@@H](N)CCCCN)C(N)=O [HP11, KkllKLlKLLL]						2 (≈ 1.51 µM)	2 (≈ 1.51 µM)	4 to 8		2 to 4	2 to 8 µg/mL	2 (≈ 1.51 µM)	6 (≈ 4.54 µM)	3 (≈ 2.27 µM)	2 (≈ 1.51 µM)	MIC Burkolderia cenocepacia (Burkolderia cenocepacia): >64 µg/mL; MIC Enterobacter cloacae (Enterobacter cloacae): 4 µg/mL (≈ 3.03 µM); MIC PA14 (P. aeruginosa PA14; [6]): 1 µg/mL (≈ 0.757 µM); MIC P. aeruginosa PA14 (P. aeruginosa PA14; supplementary CSV): 1 µg/mL (≈ 0.757 µM); MIC ZEM-1A (P. aeruginosa ZEM-1A): 2 µg/mL (≈ 1.51 µM); MIC P. aeruginosaPA14 2P4 (PA14 2P4 (pmrB)): 16 µg/mL (≈ 12.1 µM); MIC P. aeruginosa PA14 4.13 (PA14 4.13 (phoQ)): 2 µg/mL (≈ 1.51 µM); MIC P. aeruginosa PA14 4.18 (PA14 4.18 (pmrB)): 8 µg/mL (≈ 6.05 µM); MIC ZEM9A (P. aeruginosa ZEM9A): 8 µg/mL (≈ 6.05 µM); MIC K. pneumoniae Oxa-48 (K. pneumoniae Oxa-48): 4 µg/mL (≈ 3.03 µM); MIC Stenotrophomonas maltophilia [5]: 4 µg/mL (≈ 3.03 µM); MIC Staphylococcus epidermis (Staphylococcus epidermis): 4 µg/mL (≈ 3.03 µM); IC50 (HEK293 cells): 64.8 ± 4.3 µM; MIC A. baumannii ATCC19606 (A. baumannii ATCC19606; [7]): 2 µg/mL (≈ 1.51 µM); MIC S. aureus Newman (S. aureus Newman; [6]): 2 µg/mL (≈ 1.51 µM); MIC S. aureus Newmann (S. aureus Newman; supplementary CSV): 2 µg/mL (≈ 1.51 µM)
CC(C)C[C@H](NC(=O)[C@H](CC(C)C)NC(=O)[C@H](CC(C)C)NC(=O)[C@@H](CCCNC(=N)N)NC(=O)[C@H](CC(C)C)NC(=O)[C@H](CC(C)C)NC(=O)[C@@H](CCCNC(=N)N)NC(=O)[C@H](CC(C)C)NC(=O)[C@H](CC(C)C)NC(=O)[C@@H](CCCNC(=N)N)NC(=O)[C@H](N)CCCNC(=N)N)C(N)=O [HP33, rrLLrLLrLLL] (H-[dR][dR]LL[dR]LL[dR]LLL-NH2)			85	56	63	4 (≈ 2.79 µM)	4 to 8	4 to 8		4 to 8		2 to 4	6 (≈ 4.18 µM)	6 (≈ 4.18 µM)	3 (≈ 2.09 µM)	MHC (human red blood cells; human red blood cells in PBS pH 7.4, 4 h, room temperature): 125 µg/mL; MHC (human red blood cells; supplementary CSV, human red blood cells): 125 µg/mL; MIC E. coli W3110 (E. coli W3110; [7]): 6 µg/mL (≈ 4.18 µM)
H-KKIIKIIKIII-NH2 [HP34]	63	62.5	95	10	68		32	>64	>64	>64		>64				MIC A. baumannii ATCC19606 (A. baumannii ATCC19606; ATCC19606): 12 µg/mL; MIC A. baumannii ATCC19606 (A. baumannii ATCC19606; ATCC19606, pH 7.4): 8 to 16 µg/mL
